tested on: MV-4-11; experiment: CCK-8 proliferation, MV-4-11; format: cell-based, Human; conditions: Homo sapiens, MV4-11; CCK-8; 72 or 96 hours; read-out: Inhibitory activity (IC50) on tumor cell proliferation, MV-4-11
Procedure: The tumor cells used herein were cultured in a cell culture medium listed in table A1 at 37°C in an incubator with 5% CO2. Prior to experimentation, all cell lines used were correctly identified by STR profiling, and tested negative for mycoplasma contamination using a mycoplasma detection kit through routine screenings. Table A1. Tumor cells and cell culture medium used in the present disclosure
IC50 values of the compounds of the present disclosure (including the compounds in Table 1, and compounds of examples) were measured using the Meilun Cell Counting Kit-8 kit from Dalian Meilun Biotech Co., Ltd. Assay details are as follows: tumor cells were seeded in a 96-well plate at a density listed in Table A2. After 24h, 100 µL of the inoculated cells were treated with 0.5µL of the compounds of the present disclosure (including the compounds in Tables 1 and 2, and compounds of examples) at 10 different successively decreasing concentrations (starting at the highest concentration of 10µM; 5-fold serial dilutions). After the cells were treated with the compounds of the present disclosure for a period of time, the cell viability detection reagent was added to the culture medium for cell viability assessment according to the instructions provided with the CCK-8 kit. […] The growth inhibition of the compounds of the present disclosure on cells was plotted by Prism Graphpad software, and the IC50 values of the compounds of the present disclosure were calculated therefrom. […] Seeding protocol and treatment time for tumor cells

IC50 [nM]	Compound
500 to 1000	Cc1ccsc1C(=O)n1nc(Nc2ccc(S(=O)(=O)N3CCN(Cc4ccc(C5CCC(=O)NC5=O)c(F)c4)CC3)cc2)nc1N (stereo not shown) [GT-06855, 3-(4-((4-((4-((5-amino-1-(3-methylthiophene-2-carbonyl)-1H-1,2,4-triazol-3-yl)amino)phenyl)sulfonyl)piperazin-1-yl)methyl)-2-fluorophenyl)piperidine-2,6-dione]
500 to 1000	Nc1nc(Nc2ccc(S(=O)(=O)N3CCN(Cc4cccc(N5CCC(=O)NC5=O)c4)CC3)cc2)nn1C(=O)c1c(F)cccc1F [GT-06752, 1-(3-((4-((4-((5-amino-1-(2,6-difluorobenzoyl)-1H-1,2,4-triazol-3-yl)amino)phenyl)sulfonyl)piperazin-1-yl)methyl)phenyl)dihydropyrimidine-2,4(1H,3H)-dione]
100 to 500	Cc1ccsc1C(=O)n1nc(Nc2ccc(S(=O)(=O)N3CCN(Cc4ccc(C5CCC(=O)NC5=O)cc4)CC3)cc2)nc1N (stereo not shown) [GT-06854, 3-(4-((4-((4-((5-amino-1-(3-methylthiophene-2-carbonyl)-1H-1,2,4-triazol-3-yl)amino)phenyl)sulfonyl)piperazin-1-yl)methyl)phenyl)piperidine-2,6-dione]
100 to 500	Nc1nc(Nc2ccc(S(=O)(=O)N3CCN(Cc4ccc(N5CCC(=O)NC5=O)cn4)CC3)cc2)nn1C(=O)c1c(F)cccc1F [GT-06753, 1-(6-((4-((4-((5-amino-1-(2,6-difluorobenzoyl)-1H-1,2,4-triazol-3-yl)amino)phenyl)sulfonyl)piperazin-1-yl)methyl)pyridin-3-yl)dihydropyrimidine-2,4(1H,3H)-dione]
100 to 500	Cc1ccsc1C(=O)n1nc(Nc2ccc(S(=O)(=O)N3CCN(Cc4ccc(N5CCC(=O)NC5=O)cn4)CC3)cc2)nc1N [GT-06860, 1-(6-((4-((4-((5-amino-1-(3-methylthiophene-2-carbonyl)-1H-1,2,4-triazol-3-yl)amino)phenyl)sulfonyl)piperazin-1-yl)methyl)pyridin-3-yl)dihydropyrimidine-2,4(1H,3H)-dione]
100 to 500	Cc1ccsc1C(=O)n1nc(Nc2ccc(S(=O)(=O)N3CCN(Cc4cccc(N5CCC(=O)NC5=O)c4)CC3)cc2)nc1N [GT-06859, 1-(3-((4-((4-((5-amino-1-(3-methylthiophene-2-carbonyl)-1H-1,2,4-triazol-3-yl)amino)phenyl)sulfonyl)piperazin-1-yl)methyl)phenyl)dihydropyrimidine-2,4(1H,3H)-dione]
100 to 500	Cc1cc(S(=O)(=O)N2CCN(Cc3ccc(C4CCC(=O)NC4=O)cc3)CC2)ccc1Nc1ncc(Br)c(Nc2cccc(F)c2C(N)=O)n1 (stereo not shown) [GT-06830, 2-((5-bromo-2-((4-((4-(4-(2,6-dioxopiperidin-3-yl)benzyl)piperazin-1-yl)sulfonyl)-2-methylphenyl)amino)pyrimidin-4-yl)amino)-6-fluorobenzamide]

same assay, conditions: Homo sapiens, MV4-11; Table B10, compounds designed based on the IRAK4 inhibitors; MV-4-11 cells; read-out: Inhibitory activity (IC50, nM) on tumor cell proliferation, MV-4-11

IC50 [nM]	Compound
100 to 500	O=C1CCN(c2ccc(CN3CCC(n4cc(NC(=O)c5cnn6ccc(N7CCOCC7)nc56)c(C(F)F)n4)CC3)cc2F)C(=O)N1 [GT-03814, N-(3-(difluoromethyl)-1-(1-(4-(2,4-dioxotetrahydropyrimidin-1(2H)-yl)-3-fluorobenzyl)piperidin-4-yl)-1H-pyrazol-4-yl)-5-morpholinopyrazolo[1,5-a]pyrimidine-3-carboxamide]
50 to 100	Cc1cc(-c2nc(C(=O)Nc3cc4oc(N5CCN(Cc6ccc(C7CCC(=O)NC7=O)cc6)CC5)nc4nc3N3CC[C@@H](O)C3)co2)ccn1 (stereo partly drawn) [GT-03846, N-(2-(4-(4-(2,6-dioxopiperidin-3-yl)benzyl)piperazin-1-yl)-5-((R)-3-hydroxypyrrolidin-1-yl)oxazolo[4,5-b]pyridin-6-yl)-2-(2-methylpyridin-4-yl)oxazole-4-carboxamide]
50 to 100	Cc1cc(-c2nc(C(=O)Nc3cc4oc(N5CCN(Cc6ccc(C7CCC(=O)NC7=O)c(F)c6)CC5)nc4nc3N3CC[C@@H](O)C3)co2)ccn1 (stereo partly drawn) [GT-03847, N-(2-(4-(4-(2,6-dioxopiperidin-3-yl)-3-fluorobenzyl)piperazin-1-yl)-5-((R)-3-hydroxypyrrolidin-1-yl)oxazolo[4,5-b]pyridin-6-yl)-2-(2-methylpyridin-4-yl)oxazole-4-carboxamide]

— patent EP4678638A1, “NEW E3 UBIQUITIN LIGASE LIGAND, PROTEIN DEGRADATION AGENT AND USE THEREOF” (priority 2023, dated 2024)
